From US20170305861A1, “HETEROARYL COMPOUNDS COMPRISING NITROGEN AND USE THEREOF” (ImmunoMet Therapeutics, Inc, priority 2016, published 2017)
Where two headings read alike, the source gives them in different places.

Columns and labels:
[1] = tested on: RENCA mouse kidney cancer cells; assay: Antitumor effect in mouse kidney cancer cells, subcutaneous RENCA implant in BALB/c mice; format: in vivo; settings: for volume of tumor: 10 mg/kg intraperitoneally once a day, BALB/c mice
Protocol: RENCA, which are mouse kidney cancer cells, were cultured in RPMI 1640 medium containing 10% FBS and 1% anti-anti at 37° C. and 5% CO2. 8- to 10-week-old BALB/c mice with a body weight range of 18 g to 20 g were subjected to a 7-day acclimation period, and then 1×10^6/0.1 mL of RENCA cells in PBS were subcutaneously implanted on the right side of the backs of the mice. Seven days after implantation, group separation was performed based on the average of tumor volumes when the tumor volumes reached […]. A vehicle control group was intraperitoneally injected with PBS containing 2% DMSO and 2% Tween80, and an Example 62 administration group was intraperitoneally injected at a dose of 10 mg/kg, once a day for 2 weeks. Tumor volume measurements were performed twice weekly using Vemier calipers, and the volume of tumor was calculated by substituting long axis and short axis for 0.5×long axis×short axis^2.

[2] = tested on: A549 cell lines (lung cancer cell lines); assay: Oxygen Consumption Rate (OCR) of cells, corrected for cell viability (Cyquant); format: cell-based; settings: Homo sapiens; A549 cells, 24 h drug treatment, OCR value reflecting cell viability; read-out: OCR IC50
Protocol: The compounds synthesized by the methods disclosed in the Examples of the present invention have been measured on oxygen consumption rate and extracellular oxidation by the methods disclosed in the Test Examples below.
3×10^3 cells from A549 cell lines (purchased from ATCC-American Type Culture Collection), which are lung cancer cell lines, were placed on XF96 cell culture plates using RPMI1640 medium, and cultured at 37° C. in a 5% CO2 condition for 16 hours or more for attachment.
After 16 hours, the cells were treated with the drug at six different concentrations between 0 μM and 20 μM. After 24 hours, the existing medium was removed, and XF assay medium (15 mM D-Glucose, 15 mM sodium pyruvate, 4 mM L-Glutamine, pH 7.4) was added. The cells were retreated with the drug, and additionally cultured in Prep station at 37° C. in a non-CO2 condition for 1 hour. During the one-hour culture in the Prep station, a sensor cartridge was placed and calibrated for 20 minutes, and a plate with cells was placed to analyze the OCR. After the analysis was completed, XF96 plate was measured for cell viability using Cyquant assay, which measures the amount of intracellular DNA, in the following method. XF assay medium and the drug were removed, and the cells were placed in a cryogenic refrigerator (−80° C.) for at least 4 hours to be frozen. After the plate was made to be at room temperature, a solution where a lysis buffer and fluorescent GR dye were mixed was placed by 200 μL per well. After 20-minute reaction at room temperature, […] was measured between […] to calculate cell viability. A measured value of a well untreated with the drug was converted to 100% by reflecting cell viability to the OCR value. Concentration of a drug which inhibits the OCR value reflecting cell viability by 50% was calculated.

[3] = tested on: SK-MEL-28 cells; assay: Inhibitory effect of cancer cell proliferation, MTT; format: cell-based; settings: Homo sapiens, SK-MEL-28, 72 hours, MTT
Protocol: The compounds prepared in the above Examples were evaluated for the inhibitory effect of cancer cell proliferation according to the method described in the following Test Example.
SK-MEL-28 cells derived from human melanoma were used, and the concentration (cell growth inhibitory concentration, IC50) at which cell growth was inhibited to 50% was measured using MTT reagent (3-(4,5-dimethylthiazole-2-yl)-2,5-[…] bromide) to confirm the inhibitory effect of cancer cell proliferation of the drugs synthesized in Examples 1 to 84.
First, SK-MEL-28 cells were cultured in 96-well plates at a cell number of about 1,250 in RPMI-1640 medium containing 11.1 mM glucose and 10% calf blood serum or 0.75 mM glucose and 10% calf blood serum, and were cultured for 16 hours. […] After treatment of the compound, MTT was added to the culture medium to confirm living cells and further cultured for 2 hours. The resulting formazane crystal was dissolved using dimethyl sulfoxide, and the absorbance of the solution was measured at 555 nm. After culturing for 72 hours, the number of viable cells in the well plate treated with the compounds synthesized in the Examples relative to the number of cells cultured in the well plate without treatment of the compounds was expressed as cell viability (%) according to each treatment concentration. By using this, a cell viability curve graph was prepared, and the inhibitory effect of cancer cell proliferation was confirmed by calculating the concentration of the compound whose growth was inhibited to 50% (IC50).

IC50 [2]: 1 µM
IC50 ([3]; 0.75 mM glucose, read-out: SK-MEL-28 0.75 mM glucose Cell viability (IC50 μM)): 3.1 µM
IC50 ([3]; 11.1 mM glucose, read-out: SK-MEL-28 11.1 mM glucose Cell viability (IC50 μM)): 40.1 µM
Structure (SMILES): Br.c1cc(C[n+]2ccc(N3CCCC3)cc2)cs1 [Example 62, 4-(Pyrrolidin-1-yl)-1-(thiophen-3-ylmethyl)pyridinium bromide]
volume of tumor ([1]; day 7 post tumor implantation (group separation)): 81 ± 7 mm³
volume of tumor ([1]; day 9 post tumor implantation): 146 ± 17 mm³
volume of tumor ([1]; day 12 post tumor implantation): 227 ± 39 mm³
volume of tumor ([1]; day 14 post tumor implantation): 364 ± 68 mm³
volume of tumor ([1]; day 16 post tumor implantation): 545 ± 132 mm³
volume of tumor ([1]; day 20 post tumor implantation): 775 ± 206 mm³
tumor growth compared with the vehicle control group ([1]; from the 6th day of administration, 10 mg/kg intraperitoneally once a day for 2 weeks): remarkably inhibited tumor growth
